Assay: on-resin side-chain-to-N-terminus lactamisation (lanthionine D-half alpha-COOH + N-terminal amine); PyAOP 5 eq, HOAt 5 eq, DIPEA 10 eq, after TBAF (Teoc/TMSE) and piperidine (Fmoc) removal; NovaSyn TGT low-loading resin
Settings: the molecule shown is the open-chain precursor, DMF, 60.0 °C

Compound	ring closure, overall yield (16-membered ring, 3.1 h) [%]	also measured
*OC(=O)[C@@H](NC(=O)[C@H](CSC[C@@H](N)C(=O)O)NC(=O)CNC(=O)[C@@H](N)CC(C)C)[C@@H](C)OC(C)(C)C	–	ring closure, overall yield (13-membered ring, 3.1 h): 34%
*OC(=O)[C@H](C)NC(=O)[C@H](CSC[C@@H](N)C(=O)O)NC(=O)[C@H](CC(C)C)NC(=O)[C@H](CSC(c1ccccc1)(c1ccccc1)c1ccccc1)NC(=O)[C@@H](N)CC(C)C	15	–
*OC(=O)[C@H](CCCCNC(=O)OC(C)(C)C)NC(=O)[C@H](CS[C@@H](C)[C@@H](N)C(=O)O)NC(=O)CNC(=O)[C@@H]1CCCN1	–	ring closure, overall yield (13-membered ring, 5.1 h): 37%
*OC(=O)[C@H](C)NC(=O)[C@H](CSC[C@@H](N)C(=O)O)NC(=O)[C@H](CC(C)C)NC(=O)[C@H](C)NC(=O)[C@@H](N)CC(C)C	3	–
*OC(=O)[C@H](CCCCNC(=O)OC(C)(C)C)NC(=O)[C@H](CSC[C@@H](N)C(=O)O)NC(=O)CNC(=O)[C@@H]1CCCN1	–	ring closure, overall yield (13-membered ring, 3.1 h): 7%
*OC(=O)[C@H](C)NC(=O)[C@H](CSC[C@@H](N)C(=O)O)NC(=O)[C@H](CC(C)C)NC(=O)[C@H](COC(C)(C)C)NC(=O)[C@@H](N)CC(C)C	5	–
*OC(=O)[C@H](C)NC(=O)[C@H](CSC[C@@H](N)C(=O)O)NC(=O)[C@H](CC(C)C)NC(=O)[C@H](CSC(c1ccccc1)(c1ccccc1)c1ccccc1)NC(=O)[C@@H](N)[C@@H](C)CC	11	–

Reference: publication PMC6759747
